From patent US9526766B2, “Potentiation of antibiotic treatment with a protein-lipid complex” (priority 2012, dated 2016)

Tests used:
Staphylococcus aureus = assay: MIC by broth microdilution, antibiotics with and without ALAFAC; assay type: cell-based; conditions: NRS 123; methicillin + ALAFAC; Ruthenium Red 30 μM, Amiloride 1 mM
Procedure: Methodology: Minimal inhibitory concentrations (MICs) were determined in 96-well microtiter plates using the microdilution method according to approved standards of the CLSI except that Todd-Hewitt medium supplemented with 0.5% yeast extract, which yields reproducible MIC results was used as the test medium for S. pneumoniae. For the remaining species Mueller-Hinton medium was used as indicated by the CLSI standard. Each well contained two-fold dilutions of antibiotic, was seeded with a final bacterial concentration of 10^5 CFU/mL, and was incubated for 18 h at 37° C. in a Synergy II microplate reader (Biotek, Winooski, Vt.) where the OD600 was recorded every 5 minutes to monitor bacterial growth. The MIC was defined as the lowest concentration of antimicrobial agent solution at which no increase in OD600 was detected.
In vitro susceptibility tests. Minimal inhibitory concentrations (MICs) were determined in 96-well microtiter plates using the microdilution method according to approved standards of the CLSI as described previously. However, rather than Mueller-Hinton broth, Tryptic soy broth (TSB) was used for susceptibility testing as it is the common media used for Staphylococcal growth, and as it has shown more consistent results for a variety of antimicrobials when tested against Staphylococci. […] A two-fold dilution series of antibiotics in triplicate and in the presence or absence of ALAFAC was prepared in 96 well microtiter plates, and each well was seeded with a final bacterial concentration of 10^5 CFU/mL, and was incubated for 24 h at 37° C. in a Synergy 2 microplate reader (Biotek, Winooski, Vt.) where the Optical Density at 600 nm (OD600) was recorded every 5 minutes to monitor bacterial growth. The MIC was defined as the lowest concentration of antimicrobial agent solution where no increase in OD600 was detected.

Streptococcus pneumoniae = assay: Short-time kill assay on planktonic cultures; assay type: cell-based; conditions: D39, 1 hour, staurosporine 20 μM; for Effect of inhibitor on ALAFAC potentiation of gentamicin and penicillin G: Ruthenium Red 30 μM
Procedure: Methodology: In late logarithmic growth phase, the bacteria were harvested by centrifugation at 12,000×g for 10 minutes and resuspended in phosphate-buffered saline (PBS; […], […], […], pH 7.4). Appropriate dilutions of the bacteria were suspended in PBS and treated with indicated concentrations of ALAFAC and/or antibiotics for various times. The effect on bacterial viability was assessed by plating serial dilutions of bacterial sample on tryptic soy agar plates containing 5% sheep blood (viable counts) and determining viable colony forming units after overnight growth at 37° C.
Short-time kill assays. In late logarithmic growth phase, the bacteria were harvested by centrifugation at 12,000×g for 10 minutes and resuspended in phosphate-buffered saline (PBS; 30 mM Na2HPO4, 10 mM KH2PO4, […], pH 7.4). Appropriate concentrations of the bacteria (around 10^8 colony forming units per ml) were suspended in PBS and treated with indicated concentrations of ALAFAC and/or antibiotics for various times. The effect on bacterial viability was assessed by plating serial dilutions of bacterial sample on tryptic soy agar plates containing 5% sheep blood (viable counts) and determining viable CFUs after overnight growth at 37° C.

NRS 123 Staphylococci = assay: Membrane potential, DiBAC4(3) fluorescence; assay type: cell-based, Staphylococcus aureus; conditions: Ruthenium Red, Amiloride
Procedure: Assessing membrane potential. Staphylococci grown to late log phase in TSB were pelleted by centrifugation at 2,400×g for 10 minutes and washed twice by resuspension in PBS. The bacterial pellet was resuspended in PBS to half of the original volume and energized with 50 mM glucose for 15 minutes at 37° C. To measure membrane potential of the staphylococcal membrane, 500 nM DiBAC4(3) (bis-(1,3-dibutylbarbituric acid) trimethine oxonol; Molecular Probes, Eugene, Oreg., USA) were added. […] The plate was then placed immediately into a pre-warmed (37° C.) Synergy 2 Multi-Mode Microplate Reader (BioTek) where fluorescence readings from DiBAC4(3) (485/20 nm excitation, 528/20 nm emission) were taken every minute for one hour. The difference in fluorescence intensity between the untreated control and the ALAFAC-treated sample was calculated for the “no inhibitor” samples and for the “inhibitor” samples using the values after 60 minutes. The fluorescence intensity difference for the “inhibitor” samples was then expressed as fold change of the intensity compared with the ALAFAC alone (“no inhibitor”) sample, providing the degree of depolarization compared to the “ALAFAC alone” sample.

NRS 384 Staphylococci [1] = assay: Radioisotope 45Ca2+ transport assay; assay type: cell-based, Staphylococcus aureus; conditions: ALAFAC addition, Ruthenium Red 30 μM
Procedure: Radioisotope ^45Ca^2+ transport assays. Staphylococcus aureus was grown to log phase, washed three times and resuspended in 1×PBS containing 0.5 mM CaCl2 (CaPBS). No glucose was added in order to minimize the interference created by extrusion of Ca^2+ via ATPase pumps. ^45CaCl2 (PerkinElmer; Waltham, Mass., USA) was added to the cells at a final concentration of 2.5 μCi/mL, followed by inhibitor compound, with each addition given two minutes equilibration time. The untreated baseline sample was measured at this point. The sample was then divided, ALAFAC was added to one of the tubes, and ^45Ca^2+ uptake was measured at various intervals. For each sample, 100 μL was dispensed onto Millipore 0.3 μm PHWP filters (EMD Millipore; Billerica, Mass., USA) presoaked in CaPBS, and immediately washed with 9 mL of CaPBS via syringe filtration through Millipore Swinnex® filter holders. Filters were placed in scintillation vials with 5 mL of scintillation fluid, and CPMs were detected on a Wallac 1409 liquid scintillation counter (Wallac Oy, Turku, Finland). The results were expressed as ΔCPM that was calculated for each sample at the indicated time points as the difference between ALAFAC-treated and untreated samples.

NRS 384 Staphylococci [2] = assay: Intracellular pH measurement (BCECF-AM); assay type: cell-based, Staphylococcus aureus; conditions: ALAFAC 100 μg/mL (6 μM), RuR 30 μM, Amiloride 1 mM
Description: Intracellular pH measurement. A reported protocol for intracellular pH (pHi) measurement was modified and optimized for S. aureus by testing the effect of various dye concentrations and staining times on the measured fluorescence of S. aureus isolate NRS 384 grown to mid-log phase. Cell samples were subjected to increasing concentrations of the membrane-permeant acetoxymehtyl (AM) ester derivative of the dual-excitation ratiometric pH indicator dye BCECF (2′,7′-bis-(2-carboxyethyl)-5-(and-6)-carboxyfluorescein), for 30 minutes at 30° C. Fluorescence was measured as a ratio of fluorescence at 530 nm with dual wavelength excitation at 490 and 440 nm and calibration curves were established for each independent experiment. After testing a number of loading concentrations we observed that the fluorescence ratios remains generally constant when concentrations above 20 μM was used. Therefore 25 μM BCECF-AM was used for all experiments. The optimized staining time, 30 minutes, was determined using the same criteria and was used for all experiments. After loading, the cells were washed twice in PBS by centrifugation and the resulting pellet was resuspended in PBS to the original volume and ALAFAC and ALAFAC/antibiotic combinations were added. CCCP was added as a positive control. CCCP is a lipophilic weak acid that is soluble in the lipid domain of the membrane in both the protonated and deprotonated form. This allows it to act as a protonophore causing an influx of H^+ into the cytoplasm, dissipating both the electrical potential and the H^+ gradient across the inner membrane. For each experiment calibration was performed where cells were resuspended in high [K^+] buffers at different pH values ranging from 6.5 to 8.0.

N.N.N.N.N.N.N.N.N.N.N.N.N.N.[Cl-].[Cl-].[Cl-].[Cl-].[Cl-].[Cl-].[O-2].[O-2].[Ru+3].[Ru+3].[Ru+4] [Ruthenium Red]
Effect of inhibitor on ALAFAC antibiotic potentiation in MIC assay (Staphylococcus aureus): completely abolished
Effect of inhibitor on ALAFAC potentiation of gentamicin and penicillin G (Streptococcus pneumoniae): completely abolished
Effect of inhibitor on ALAFAC potentiation of gentamicin and penicillin G (Streptococcus pneumoniae; listed as ruthenium red): significantly blocked
Effect of inhibitor on ALAFAC-induced death (Streptococcus pneumoniae; lethal ALAFAC (12×MIC), ruthenium red 30 μM): significantly reduced
Effect of inhibitor on ALAFAC-associated membrane depolarization (NRS 123 Staphylococci): completely abolished
Intracellular Ca2+ (45Ca2+ uptake) (NRS 384 Staphylococci [1]): almost completely blocked
Transmembrane proton gradient (intracellular pH) (NRS 384 Staphylococci [2]): did not fully inhibit
